Results: patent US11053207B2, “Indoleamine-2,3-dioxygenase inhibitor and preparation method therefor” (SHANGHAI INSTITUTE OF ORGANIC CHEMISTRY, CHINESE ACADEMY OF …, priority 2014, dated 2021)
Where “and” joins values, the source holds several entries; their conditions need not be identical. Identical values can stand only once. Like-named read-outs stand apart in the source and are kept apart here.

Assays:
IDO enzyme = IDO enzyme (Homo sapiens (Human), UniProt P14902); assay: IDO enzyme inhibitory activity; assay type: biochemical; settings: OD321 nm, 60 min
Description: Firstly, the IDO gene was amplified by PCR, the PCR amplification products were recovered, and then the pET28a plasmid (purchased from Shanghai Baoman Biotechnology Co., Ltd.) and the IDO gel recovery products were digested with EcoR I and Xho I restriction endonucleases (37° C., digestion for 2 h), electrophorized and recovered. The recovered products were ligated overnight by a T4 ligase and then the ligation products were added to DH5α competent cells, placed on ice for 30 min, heat-shocked at 42° C. for 90 s, cultured on a shaker, and seeded to a plate. Monoclonies were picked, identified by PCR and then by sequencing.
The constructed BL21 containing the pET28a-IDO plasmid was cultured at 37° C. to OD600=0.6-0.8, and a final concentration of 7 μM of chlorine methemoglobin and 1 mM of IPTG (isopropyl-β-D-thiogalactoside) were added for induction at 28° C. for 4 h; after the induction, the cell was centrifuged at 6000 rpm at 4° C., the collected cells were washed once with 20 mM PBS (pH6.5), and centrifuged and collected again.
The collected cells were resuspended with a lysis solution (20 mM PBS pH 6.5), ultrasonically lysed (40% of power, lysis for 20 min, placed on ice), the lysed bacteria were centrifuged at 13000 rpm for 15 min, precipitate was discarded and the supernatant was maintained; the nickel column was equilibrated with the lysis solution (20 mM PBS pH 6.5) for 3 column volumes, and then the lysis supernatant was loaded onto the nickel column; after loading, four column volumes of a rinsing solution (20 mM PBS pH 6.5, 20 mM imidazole) were used for washing, and finally protein was eluted with eluent (20 mM PBS pH 6.5, 250 mM imidazole); the eluted protein solution was dialyzed for 4 h, and the dialysis solution was 20 mM PBS, pH 6.5. After the dialysis, the protein sample was concentrated, packed, flash frozen by liquid nitrogen, and stored at −80° C. for further use.
Firstly, the compound was subject to a 3-fold gradient dilution. 1 μL of each concentration was added to a 96-well plate; 50 μL of the IDO enzyme solution (final concentration 600 ng/100μL) was added: 25 μL of substrate 1 mixture solution was added, 25 μL of substrate 2 mixture solution was added to initiate the reaction. Finally, the plate was read at OD321 nm, 60 min.

[1] = Pharmacokinetics of compound 6 in rats (intragastric, intravenous); assay type: in vivo, SD rats; settings: for Vd: read-out: Vss
Description: 6 SD rats, male, weight 180-200 g, intragastric or intravenous administration of compound 6 (Table 3):
For intragastric administration, the compound was formulated into a suspension with 1% MC, and for intravenous injection the compound was formulated with DMSO: 20% PEG400 (5:95). Fasting for 12 hours before the test, free drinking water. The rats were all fed 2 hours after administration.
Intragastric administration: 0.25, 0.5, 1.0, 2.0, 4.0, 6.0, 8.0 and 24 h after administration;
Intravenous administration: 5 min, 0.25, 0.5, 1.0, 2.0, 4.0, 6.0, 8.0 and 24 h after administration;
At the above set point, the venous blood was taken from the posterior venous plexus of the rat eyes, and placed in a EDTA-2K tube, centrifuged at 11000 rpm for 5 min, the plasma was separated and frozen in a −20° C. refrigerator.
The concentration of compound 6 in rat plasma was determined by LC/MS/MS.
Pharmacokinetic parameters after administration were calculated using the non-compartmental model of the WinNonlin 5.3 software (Pharsight, USA).
Peak concentration Cmax and peak time Tmax are measured value;
Drug area under the curve AUC0−t value: using trapezoidal method; AUC0−∞=AUC0−t+Ct/ke, Ct is the blood concentration at the last measurable time point, ke is the elimination rate constant;
Elimination half-life t1/2=0.693/ke;
Mean residence time MRT=AUMC/AUC.
Clearance rate CL=D/AUC0−∞;
Steady state distribution volume Vss=CL×MRT
Absolute Bioavailability F=(AUCintragastric×Dintravenous)/(AUCintravenous×Dintragastric)×100%

[2] = intragastric 10 mg/kg, individual rat
[3] = intravenous 1 mg/kg, individual rat
[4] = male, SD, rat, plasma, iv, 1 mg/kg, intravenous 1 mg/kg, individual rat
[5] = male, SD, rat, plasma, iv, 1 mg/kg, intravenous 1 mg/kg, mean
[6] = male, SD, rat, plasma, po, 10 mg/kg, intragastric 10 mg/kg, individual rat
[7] = male, SD, rat, plasma, po, 10 mg/kg, intragastric 10 mg/kg, mean

IDO enzyme, sequence (P14902 whole entry): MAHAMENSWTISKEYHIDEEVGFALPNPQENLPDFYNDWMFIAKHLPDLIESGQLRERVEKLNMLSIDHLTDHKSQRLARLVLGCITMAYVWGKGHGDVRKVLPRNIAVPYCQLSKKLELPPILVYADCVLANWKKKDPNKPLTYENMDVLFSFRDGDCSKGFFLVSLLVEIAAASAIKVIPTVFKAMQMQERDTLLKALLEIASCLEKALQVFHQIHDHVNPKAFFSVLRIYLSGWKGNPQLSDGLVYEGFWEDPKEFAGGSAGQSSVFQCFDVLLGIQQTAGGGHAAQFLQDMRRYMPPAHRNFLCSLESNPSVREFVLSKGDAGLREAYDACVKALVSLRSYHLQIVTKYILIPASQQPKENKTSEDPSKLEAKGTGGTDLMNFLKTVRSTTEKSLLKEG

## CS(=O)(CCNc1nonc1/C(=N/O)Nc1ccc(F)c(Br)c1)=NC#N (racemic) [compound 6, (±)(Z)—N-(3-bromo-4-fluorophenyl)-N′-hydroxy-4-((2-(thio-methylsulfoxidecyanoimine)ethyl)amino)-1,2,5-oxadiazole-3-carboxamidine]
IDO enzyme
  IC50: 0.011 µM
[1]; [2]
  AUC0-t: 2817 ng·h/mL and 2795 ng·h/mL
  AUC0-∞: 3007 ng·h/mL and 3008 ng·h/mL
  Cmax: 854 ng/mL and 659 ng/mL
  MRT: 3.27 h and 3.47 h
  Tmax: 1.00 h
  t1/2: 1.80 h
[1]; intragastric 10 mg/kg, mean
  AUC0-t: 2651 ng·h/mL
[1]; [3]
  AUC0-t: 505 ng·h/mL and 547 ng·h/mL
  AUC0-∞: 534 ng·h/mL and 555 ng·h/mL
  CL: 31.2 mL/min/kg and 30 mL/min/kg
  MRT: 2.03 h and 1.67 h
  Vss: 3.79 L/kg and 3.02 L/kg
  t1/2: 2.51 h and 1.32 h
[1]; intravenous 1 mg/kg, mean
  AUC0-t: 533 ng·h/mL
  CL: 30.3 mL/min/kg
[1]; [4]
  AUC(0-inf): 563 ng·h/mL
  clearance: 29.7 mL/min/kg
  half-life: 1.71 h
  Vd: 3.39 L/kg
[1]; male, SD, rat, plasma, iv, 1 mg/kg, intravenous 1 mg/kg, individual rat, read-out: AUC0-t
  AUC0-t: 546 ng·h/mL
[1]; male, SD, rat, plasma, iv, 1 mg/kg, intravenous 1 mg/kg, individual rat, read-out: MRT
  MRT: 1.91 h
[1]; [5]
  AUC(0-inf): 551 ng·h/mL
  clearance: 30.3 mL/min/kg
  half-life: 1.85 h
  Vd: 3.4 L/kg
[1]; male, SD, rat, plasma, iv, 1 mg/kg, intravenous 1 mg/kg, mean, read-out: AUC0-t
  AUC0-t: 533 ng·h/mL
[1]; male, SD, rat, plasma, iv, 1 mg/kg, intravenous 1 mg/kg, mean, read-out: MRT
  MRT: 1.87 h
[1]; male, SD, rat, plasma, oral, intragastric 10 mg/kg vs intravenous 1 mg/kg, dose normalized, read-out: F (absolute bioavailability)
  bioavailability: 49.8%
[1]; [6]
  AUC(0-inf): 2480 ng·h/mL
  half-life: 1.58 h
[1]; male, SD, rat, plasma, po, 10 mg/kg, intragastric 10 mg/kg, individual rat, read-out: AUC0-t
  AUC0-t: 2340 ng·h/mL
[1]; male, SD, rat, plasma, po, 10 mg/kg, intragastric 10 mg/kg, individual rat, read-out: Cmax
  Cmax: 593 ng/mL
[1]; male, SD, rat, plasma, po, 10 mg/kg, intragastric 10 mg/kg, individual rat, read-out: MRT
  MRT: 3.35 h
[1]; male, SD, rat, plasma, po, 10 mg/kg, intragastric 10 mg/kg, individual rat, read-out: Tmax
  Tmax: 2 h
[1]; [7]
  AUC(0-inf): 2830 ng·h/mL
  half-life: 1.73 h
[1]; male, SD, rat, plasma, po, 10 mg/kg, intragastric 10 mg/kg, mean, read-out: AUC0-t
  AUC0-t: 2650 ng·h/mL
[1]; male, SD, rat, plasma, po, 10 mg/kg, intragastric 10 mg/kg, mean, read-out: Cmax
  Cmax: 702 ng/mL
[1]; male, SD, rat, plasma, po, 10 mg/kg, intragastric 10 mg/kg, mean, read-out: MRT
  MRT: 3.36 h
[1]; male, SD, rat, plasma, po, 10 mg/kg, intragastric 10 mg/kg, mean, read-out: Tmax
  Tmax: 1.33 h
